Columns and labels:
[1] = Solid-state stability test; assay type: physicochemical
Experimental: An appropriate amount of the drugs were placed in the surface dish, spread to a thickness of 3-5 mm, and exposed in high temperature, high temperature and high humidity, illumination and oxidation conditions for 10 days respectively, and the solid-state characterization was performed. The purity and the number of impurities 0.05%) of the samples for testing were determined by HPLC, and compared with the samples on day 0. The exposure conditions are:
High temperature (an oven with T=60° C.);
Illumination (25° C., a 4500±500 lx light incubator);
Oxidation (25° C., a closed container containing urea hydrogen peroxide).

Solution stability test = assay type: physicochemical
Experimental: About 15 mg of the sample was weighed accurately, dissolved with 25 mL of the test solvent (10% aqueous acetone solution, pH=4.0 B-R buffer solution, SGF, SIF) via ultrasound for 20 minutes. The solution was divided into four portions and placed in the clear glass vials, followed by sealing. The samples were exposed in different environments and sampled on day 0 and day 5. The purity of each sample was determined by HPLC, and the number of impurities greater than 0.05% was calculated and compared with the samples on day 0. The exposure environments are:
Room temperature and light-proof test, 25° C.; […]
Illumination experiment (4500±500 lx), 25° C.;
Oxidation experiment (3% v/v hydrogen peroxide), 25° C.

[2] = Water solubility at 20° C. determined by HPLC; assay type: physicochemical
[3] = Comparison of absorption in rats after intragastric administration of free base and salt (plasma pharmacokinetics); assay type: in vivo, SD rats; conditions: for AUC (0-t) / MRT (0-T) / Tmax / t1/2 / Cmax: SD rats, 20 μmol/kg, intragastric administration, plasma
Experimental: The blood sample was centrifuged at 8000 RPM for 5 minutes, followed by the isolation of the upper plasma. […] 200 μL of the supernatant was taken and centrifuged again for 10 minutes. 50 μL of the supernatant was injected in a 96-well plate. The plasma drug concentration was determined by LC/MS/MS, and the corresponding pharmacokinetic parameters were calculated.

[4] = Dynamic vapor sorption (DVS), isothermal absorption analysis; assay type: physicochemical
Experimental: In the present invention, according to the common knowledge in the art, the amount of water absorption obtained from the dynamic vapor sorption (DVS) pattern is expressed in percentage by weight.
The isothermal absorption analysis (DVS) data was collected from TA Instruments Q5000 TGA. The software for instrument control was Thermal Advantage and software for analysis was Universal Analysis. 1-10 mg of the sample was generally placed in a platinum crucible, and the weight change of the sample during the relative humidity changing from 20% to 80% was recorded by the TA software. Depending on the specifics of the sample, different steps of sample adsorption and desorption were also involved.

[5] = Solubility determined by visual inspection; assay type: physicochemical
Experimental: The solubility was determined as follows: a certain amount of the sample was weighed and the solvent was added thereto in portions with stirring or ultrasonication to accelerate dissolution; the amount of the consumed solvent was recorded once the sample was dissolved. […] A certain volume of the solution was taken, followed by filtration, concentration, dissolved with a certain volume of other suitable solvents and subjected to HPLC measurement to obtain accurate data of the solubility.

[6] = 10 d, High temperature (oven, T=60° C.)
[7] = 10 d, High temperature and high humidity (40° C., 75% relative humidity)
[8] = 10 d, Illumination (25° C., 4500±500 lx)
[9] = 10 d, Oxidation (25° C., closed container with urea hydrogen peroxide)
[10] = 10% aqueous acetone solution, 0 d, impurities greater than 0.05%
[11] = 10% aqueous acetone solution, 5 d, High temperature
[12] = 10% aqueous acetone solution, 5 d, High temperature and high humidity
[13] = 10% aqueous acetone solution, 5 d, Illumination (4500±500 lx, 25° C.)
[14] = 10% aqueous acetone solution, 5 d, Oxidation (3% v/v hydrogen peroxide, 25° C.)
[15] = B-R Buffer solution (pH=4.0), 0 d, impurities greater than 0.05%
[16] = B-R Buffer solution (pH=4.0), 5 d, High temperature
[17] = B-R Buffer solution (pH=4.0), 5 d, High temperature and high humidity
[18] = B-R Buffer solution (pH=4.0), 5 d, Illumination (4500±500 lx, 25° C.)
[19] = B-R Buffer solution (pH=4.0), 5 d, Oxidation (3% v/v hydrogen peroxide, 25° C.)
[20] = SGF, 0 d, impurities greater than 0.05%
[21] = SGF, 5 d, High temperature and high humidity
[22] = SGF, 5 d, Illumination (4500±500 lx, 25° C.)
[23] = SGF, 5 d, Oxidation (3% v/v hydrogen peroxide, 25° C.)
[24] = SIF, 0 d, impurities greater than 0.05%
[25] = SIF, 5 d, High temperature and high humidity
[26] = SIF, 5 d, Illumination (4500±500 lx, 25° C.)
[27] = SIF, 5 d, Oxidation (3% v/v hydrogen peroxide, 25° C.)

SMILES: C=C(F)C(=O)Nc1cc2c(Nc3ccc(F)c(Cl)c3)ncnc2cc1OCCCN1CCOCC1.O=S(=O)(O)c1ccccc1
- Number of impurities ([1]; 0 d): 2
- Number of impurities [1, 6]: 2
- Number of impurities [1, 7]: 2
- Number of impurities [1, 8]: 2
- Number of impurities [1, 9]: 2
- Purity (Solution stability test; 10% aqueous acetone solution, 0 d): 98.2%
- Number of impurities (Solution stability test; [10]): 1
- Number of impurities (Solution stability test; [11]): 1
- Purity (Solution stability test; [11]): 97.9%
- Number of impurities (Solution stability test; [12]): 3
- Number of impurities (Solution stability test; [13]): 1
- Purity (Solution stability test; [13]): 97.6%
- Number of impurities (Solution stability test; [14]): 7
- Purity (Solution stability test; [14]): 60.8%
- Number of impurities (Solution stability test; [15]): 2
- Number of impurities (Solution stability test; [16]): 3
- Purity (Solution stability test; [16]): 97.2%
- Number of impurities (Solution stability test; [17]): 3
- Purity (Solution stability test; [17]): 97.2%
- Number of impurities (Solution stability test; [18]): 1
- Number of impurities (Solution stability test; [19]): 12
- Purity (Solution stability test; [19]): 38.1%
- Number of impurities (Solution stability test; [20]): 1
- Number of impurities (Solution stability test; SGF, 5 d, High temperature): 2
- Number of impurities (Solution stability test; [21]): 2
- Purity (Solution stability test; [21]): 94.4%
- Number of impurities (Solution stability test; [22]): 1
- Number of impurities (Solution stability test; [23]): 3
- Purity (Solution stability test; [23]): 81.7%
- Purity (Solution stability test; SIF, 0 d): 80.2%
- Number of impurities (Solution stability test; [24]): 2
- Number of impurities (Solution stability test; SIF, 5 d, High temperature): 1
- Purity (Solution stability test; SIF, 5 d, High temperature): 58.7%
- Number of impurities (Solution stability test; [25]): 8
- Purity (Solution stability test; [25]): 42.0%
- Number of impurities (Solution stability test; [26]): 9
- Purity (Solution stability test; [26]): 10.0%
- Purity (Solution stability test; [27]): Complete
- water solubility at 20° C. determined by HPLC [2]: 60.4 µg/mL
- AUC (0-t) [3]: 972.26 ± 291.88 µM·min
- MRT (0-T) [3]: 5.9522 ± 0.2533 h
- Tmax [3]: 1.333 ± 0.5773 h
- t1/2 [3]: 5.0897 ± 2.1273 h
- Cmax ([3]; listed as monobenzenesulfonate): 2300 ± 470 nM
- hygroscopicity, in words [4]: not easy to absorb moisture

SMILES: C=C(F)C(=O)Nc1cc2c(Nc3ccc(F)c(Cl)c3)ncnc2cc1OCCCN1CCOCC1.O=S(=O)(O)CCS(=O)(=O)O
- Number of impurities ([1]; 0 d): 2
- Purity ([1]; 0 d): 99.0%
- Number of impurities [1, 6]: 2
- Purity [1, 6]: 99.0%
- Number of impurities [1, 7]: 2
- Purity [1, 7]: 99.0%
- Number of impurities [1, 8]: 2
- Purity [1, 8]: 99.0%
- Number of impurities [1, 9]: 2
- Purity [1, 9]: 99.0%
- Number of impurities (Solution stability test; [10]): 1
- Number of impurities (Solution stability test; [11]): 1
- Purity (Solution stability test; [11]): 99.0%
- Number of impurities (Solution stability test; [12]): 3
- Purity (Solution stability test; [12]): 98.1%
- Number of impurities (Solution stability test; [13]): 1
- Number of impurities (Solution stability test; [14]): 7
- Purity (Solution stability test; [14]): 70.8%
- Purity (Solution stability test; B-R Buffer solution (pH=4.0), 0 d): 99.0%
- Number of impurities (Solution stability test; [15]): 1
- Number of impurities (Solution stability test; [16]): 1
- Purity (Solution stability test; [16]): 99.0%
- Number of impurities (Solution stability test; [17]): 3
- Purity (Solution stability test; [17]): 97.7%
- Number of impurities (Solution stability test; [18]): 1
- Purity (Solution stability test; [18]): 99.0%
- Number of impurities (Solution stability test; [19]): 15
- Purity (Solution stability test; [19]): 44.0%
- Purity (Solution stability test; SGF, 0 d): 99.0%
- Number of impurities (Solution stability test; [20]): 1
- Number of impurities (Solution stability test; SGF, 5 d, High temperature): 2
- Number of impurities (Solution stability test; [21]): 2
- Purity (Solution stability test; [21]): 94.5%
- Number of impurities (Solution stability test; [22]): 2
- Number of impurities (Solution stability test; [23]): 3
- Purity (Solution stability test; SIF, 0 d): 74.8%
- Number of impurities (Solution stability test; [24]): 2
- Number of impurities (Solution stability test; SIF, 5 d, High temperature): 1
- Purity (Solution stability test; SIF, 5 d, High temperature): 50.0%
- Number of impurities (Solution stability test; [25]): 6
- Purity (Solution stability test; [25]): 36.5%
- Number of impurities (Solution stability test; [26]): 13
- Purity (Solution stability test; [26]): 25.2%
- Number of impurities (Solution stability test; [27]): 7
- Purity (Solution stability test; [27]): 30.8%
- visual solubility in water ([5]; room temperature): 1000 to 2000 µg/mL
- AUC (0-t) [3]: 195.56 ± 84.51 µM·min
- MRT (0-T) [3]: 5.3317 ± 0.9937 h
- Tmax [3]: 1.333 ± 0.2887 h
- t1/2 [3]: 3.744 ± 0.9165 h
- Cmax ([3]; listed as monoethanedisulfonate): 390 ± 160 nM
- AUC (0-t) and Cmax, comparison in words ([3]; rats, oral, same dose, free base and 6 salts): relatively low
- hygroscopicity, in words [4]: not easy to absorb moisture

SMILES: C=C(F)C(=O)Nc1cc2c(Nc3ccc(F)c(Cl)c3)ncnc2cc1OCCCN1CCOCC1.O=S(=O)(O)O
- visual solubility in water ([5]; 20° C.): 1000 to 2000 µg/mL
- AUC (0-t) [3]: 591.00 ± 29.76 µM·min
- MRT (0-T) [3]: 5.7252 ± 0.7072 h
- Tmax [3]: 1.167 ± 0.2887 h
- t1/2 [3]: 3.8468 ± 2.704 h
- Cmax ([3]; listed as monosulfate): 1660 ± 270 nM
- hygroscopicity, in words [4]: fairly hygroscopic

SMILES: C=C(F)C(=O)Nc1cc2c(Nc3ccc(F)c(Cl)c3)ncnc2cc1OCCCN1CCOCC1.O=S(=O)(O)O.O=S(=O)(O)O [disulfate of the quinazoline derivative]
- visual solubility in water ([5]; 20° C.): 910 to 1000 µg/mL

Source: patent publication US10870627B2, “Salt of quinazoline derivative, preparation method therefor and application thereof” (SHANGHAI PHARMACEUTICALS HOLDING CO., LTD., priority 2016, dated 2020)
